This note sets out measurements from patent publication US5789431A, “Naphthoquinone antitumor compound and method” (The University of North Carolina at Chapel Hill, priority 1996, dated 1998).

Each structure is given as a SMILES string.

Series [1] deals with SR. The series is described as follows: in vitro leukemia cell growth inhibition (NCI screen).
Series [2] has as its system ACHN. The series is described as follows: in vitro renal cancer cell growth inhibition (NCI screen).
In series [3] the test system is LOX1MVI. The series is described as follows: in vitro melanoma cell growth inhibition (NCI screen).
Series [4] has as its system SNB-75. The series is described as follows: in vitro CNS cancer cell growth inhibition (NCI screen).
Series [5] concerns M19-MEL. The series is described as follows: in vitro melanoma cell growth inhibition (NCI screen).
Series [6] concerns UACC-257. Described as above.
Series [7] relates to HL-60(TB). The series is described as follows: in vitro leukemia cell growth inhibition (NCI screen).
Series [8] concerns XF-498. The series is described as follows: in vitro CNS cancer cell growth inhibition (NCI screen).
Series [9] deals with NCI-H23. The series is described as follows: in vitro non-small cell lung cancer cell growth inhibition (NCI screen).
Series [10] concerns UO-31. The series is described as follows: in vitro renal cancer cell growth inhibition (NCI screen).
Series [11] has as its system K-562. The series is described as follows: in vitro leukemia cell growth inhibition (NCI screen).
Series [12] relates to SN12C. The series is described as follows: in vitro renal cancer cell growth inhibition (NCI screen).
In series [13] the test system is OVCAR-3. The series is described as follows: in vitro ovarian cancer cell growth inhibition (NCI screen).
Series [14] relates to NCI-H460. The series is described as follows: in vitro non-small cell lung cancer cell growth inhibition (NCI screen).
The subject of series [15] is NCI-H522. The series is described as above.
In series [16] the test system is HT 29. The series is described as follows: in vitro colon cancer cell growth inhibition (NCI screen).
Series [17] deals with SK-MEL-5. The series is described as follows: in vitro melanoma cell growth inhibition (NCI screen).
Series [18] concerns MOLT-4. The series is described as follows: in vitro leukemia cell growth inhibition (NCI screen).
Series [19] has as its system HOP-92. The series is described as follows: in vitro non-small cell lung cancer cell growth inhibition (NCI screen).
Series [20] deals with MALME-3M. The series is described as follows: in vitro melanoma cell growth inhibition (NCI screen).
For series [21], the system named is UACC-62. The series is described as above.
Series [22] deals with HCT-15. The series is described as follows: in vitro colon cancer cell growth inhibition (NCI screen).
Series [23] relates to COLO-205. The series is described as above.
Series [24] concerns CCRF-CEM. The series is described as follows: in vitro leukemia cell growth inhibition (NCI screen).
Series [25] deals with OVCAR-8. The series is described as follows: in vitro ovarian cancer cell growth inhibition (NCI screen).
Series [26] concerns RXF-393. The series is described as follows: in vitro renal cancer cell growth inhibition (NCI screen).
The subject of series [27] is MDA-MB-435. The series is described as follows: in vitro breast cancer cell growth inhibition (NCI screen).
In series [28] the test system is MCF-7. The description is as above.
For series [29], the system named is MCF7/ADR-RES. The description is as above.
In series [30] the test system is HCC-2998. The series is described as follows: in vitro colon cancer cell growth inhibition (NCI screen).
The subject of series [31] is HCT-116. Described as above.
Series [32] has as its system PC-3. The series is described as follows: in vitro prostate cancer cell growth inhibition (NCI screen).
The test system of series [33] is SW 620. The series is described as follows: in vitro colon cancer cell growth inhibition (NCI screen).
Series [34] relates to SK-OV-3. The series is described as follows: in vitro ovarian cancer cell growth inhibition (NCI screen).
Series [35] concerns IGROV1. The series is described as above.
Series [36] relates to MDA-N. The series is described as follows: in vitro breast cancer cell growth inhibition (NCI screen).
For series [37], the system named is M14. The series is described as follows: in vitro melanoma cell growth inhibition (NCI screen).
Series [38] relates to T-47D. The series is described as follows: in vitro breast cancer cell growth inhibition (NCI screen).
Series [39] has as its system RPMI-8226. The series is described as follows: in vitro leukemia cell growth inhibition (NCI screen).
For series [40], the system named is OVCAR-4. The series is described as follows: in vitro ovarian cancer cell growth inhibition (NCI screen). The note with it: OVACR-4.
Series [41] deals with human tumor cell lines. Format: cell-based.
The test system of series [42] is KM 20L2. The series is described as follows: in vitro colon cancer cell growth inhibition (NCI screen).
Series [43] deals with SK-MEL-2. The series is described as follows: in vitro melanoma cell growth inhibition (NCI screen).

For `Cc1nc2c(n1C(C)(C)C)C(=O)c1ccccc1C2=O` [Compound 8], the “cytotoxicity log GI50” value was -4.35 M in series [1]; -4.31 M in series [2]; -4.38 M in [3]; -4.50 M in series [4]; -4.61 M in series [5]; -4.37 M in series [6]. The “cytotoxicity log GI50” value was -4.34 M in series [7]; -4.36 M in series [8]; -4.42 M in series [9]; -4.43 M in [10]; -4.30 M in series [11]; -4.30 M in series [12]. Further, the “cytotoxicity log GI50” value is -4.41 M in [13]; -4.44 M in [14]; -4.36 M in [15]; -4.36 M in series [16]; -4.41 M in series [17]; -4.31 M in [18]. For the same compound, the “cytotoxicity log GI50” value was -5.03 M in series [19], -4.35 M in series [20] and -4.35 M in series [21].

On to `CCNC1=C(NC(=O)c2ccc(F)cc2)C(=O)c2ccccc2C1=O` [Compound 48], for which the “cytotoxicity log GI50” value is on record as -4.51 M in [22]; -4.58 M in series [23]; -4.45 M in series [24]; -4.49 M in series [25]; -4.53 M in series [26]; -4.74 M in series [27]. In addition, the “cytotoxicity log GI50” value in series [6] is -4.80 M; in [28], -4.52 M; in [29] it was -4.56 M; in series [30] it was -4.46 M; in series [9], -4.46 M; in series [31] it was -4.52 M. The “cytotoxicity log GI50” value in series [32] is -4.76 M; in [13] it was -4.44 M; in series [33], -4.49 M; in [34] it was -4.73 M; in series [15] it was -4.68 M; in [16] it was -4.65 M. Further, the “cytotoxicity log GI50” value is recorded as -4.50 M in series [35]; -4.46 M in series [17]; -4.52 M in series [18]; -4.47 M in series [36]; -4.72 M in [20]; -4.82 M in [21]. For the same compound, in [37], the “cytotoxicity log GI50” value is listed as -4.61 M.

For the compound `CCCc1nc2c(n1CC)C(=O)c1ccccc1C2=O` [Compound 24], the “cytotoxicity log GI50” value in series [22] is recorded as -4.55 M; in [38] it was -4.55 M; in series [24] it was -4.61 M; in series [39], -4.50 M; in [27], -4.76 M; in series [6], -4.74 M. The “cytotoxicity log GI50” value was -4.58 M in [29]; -4.51 M in series [30]; -4.51 M in [11]; -4.49 M in series [40]; -4.49 M in series [13]; -4.66 M in series [34]. Besides, the “cytotoxicity log GI50” value is reported as -4.62 M in series [15]; -4.73 M in series [16]; -4.57 M in [35]; -4.53 M in series [17]; -4.77 M in series [18]; -4.70 M in series [36]. The “cytotoxicity log GI50” value in series [20] is on record as -4.65 M; in series [21] it was -4.59 M. In addition, the GI50 in [41] (Homo sapiens, cancer cell panel, general / most cell lines, read-out: logGI50 values in the cancer cell line panel (converted)) is about 10 µM.

`CC(=O)NC1=C(NCCO)C(=O)c2ccccc2C1=O` [Compound 40]: the “cytotoxicity log GI50” value in [42] was -4.62 M; in series [5] it was -5.01 M; in series [7], -4.68 M; in [31] it was -4.52 M; in series [13] it was -4.72 M; in series [15] it was -4.61 M. For the same compound, the figures for the “cytotoxicity log GI50” value in series [17] and in series [20] were -4.53 M and -4.89 M, respectively.

Turning to `CCNC1=C(NC(=O)c2ccc(OC)cc2)C(=O)c2ccccc2C1=O` [Compound 49], the “cytotoxicity log GI50” value in [23] is reported as -4.43 M; in series [25], -4.61 M; in series [26], -4.55 M; in [27] it was -4.77 M; in series [6], -4.71 M; in [29] it was -4.54 M. The “cytotoxicity log GI50” value is given as -4.43 M in series [30]; -4.36 M in series [9]; -4.44 M in [31]; -4.46 M in series [40]; -4.48 M in series [32]; -4.62 M in series [13]. The “cytotoxicity log GI50” value is given as -4.36 M in series [33]; -4.51 M in series [15]; -4.63 M in series [16]; -4.46 M in [17]; -4.44 M in [18]; -4.43 M in series [36]. Moreover, the “cytotoxicity log GI50” value in series [20] was -4.67 M; in series [21], -4.40 M; in series [37], -4.67 M.

As to `Cc1nc2c(n1CCN(C)C)C(=O)c1ccccc1C2=O` [Compound 15], the “cytotoxicity log GI50” value in series [1] was -4.93 M; in series [22] it was -4.89 M; in series [23], -5.35 M; in series [42], -5.20 M; in series [43], -4.91 M; in [5], -5.69 M. For the same compound, the “cytotoxicity log GI50” value in [7] is reported as -5.28 M; in series [9] it was -4.92 M; in [13], -5.15 M; in series [14], -5.01 M; in series [15], -5.27 M; in series [16], -4.98 M. For the same compound, the “cytotoxicity log GI50” value in series [17] is listed as -5.13 M; in series [20], -5.55 M; in [21], -4.92 M; in series [37] it was -4.93 M. In addition, the “cytotoxicity against tumor cells (in words)” value in [41] (cancer cell line panel) is “comparable to those of compounds 6-14”.
